Reference: publication PMC8799717, “Pharmacological targeting PIKfyve and tubulin as an effective treatment strategy for double-hit lymphoma” (Cell Death Discovery, 2022)

How the values were obtained:
EPHA8 = EPHA8 (Homo sapiens, UniProt P29322); test: KINOMEscan competition binding, single dose […]; details: read-out: % of control at 1 μM
LTK = LTK (Homo sapiens, UniProt P29376); test: biochemical; parameters: KINOMEscan active-site-directed competition binding panel, 468 kinases, percent of DMSO control at 1 uM; details: KINOMEscan binding, percent of DMSO control; read-out: Ctrl%
DYRK1B = DYRK1B (Homo sapiens, UniProt Q9Y463); test: biochemical; parameters: KINOMEscan active-site-directed competition binding panel, 468 kinases, percent of DMSO control at 1 uM; details: KINOMEscan binding, percent of DMSO control; read-out: Ctrl%
STK33 = STK33 (Homo sapiens, UniProt Q9BYT3); test: biochemical; parameters: KINOMEscan active-site-directed competition binding panel, 468 kinases, percent of DMSO control at 1 uM; details: KINOMEscan binding, percent of DMSO control; read-out: Ctrl%
DDR1 = DDR1 (Homo sapiens, UniProt Q08345); test: KINOMEscan competition binding, single dose […]; details: read-out: % of control at 1 μM
[1] = target: T1, RSK3(Kin.Dom.1-N-terminal) (Homo sapiens, UniProt Q15349); test: biochemical; parameters: KINOMEscan active-site-directed competition binding panel, 468 kinases, percent of DMSO control at 1 uM; details: KINOMEscan binding, percent of DMSO control; read-out: Ctrl%
T1 construct: gene RPS6KA2; Kin.Dom.1-N-terminal

PDGFRA = PDGFRA (Homo sapiens, UniProt P16234); test: biochemical; parameters: KINOMEscan active-site-directed competition binding panel, 468 kinases, percent of DMSO control at 1 uM; details: KINOMEscan binding, percent of DMSO control; read-out: Ctrl%
CDK9 = CDK9 (Homo sapiens, UniProt P50750); test: biochemical; parameters: KINOMEscan active-site-directed competition binding panel, 468 kinases, percent of DMSO control at 1 uM; details: KINOMEscan binding, percent of DMSO control; read-out: Ctrl%
ROCK1 = ROCK1 (Homo sapiens, UniProt Q13464); test: biochemical; parameters: KINOMEscan active-site-directed competition binding panel, 468 kinases, percent of DMSO control at 1 uM; details: KINOMEscan binding, percent of DMSO control; read-out: Ctrl%
NEK5 = NEK5 (Homo sapiens, UniProt Q6P3R8); test: biochemical; parameters: KINOMEscan active-site-directed competition binding panel, 468 kinases, percent of DMSO control at 1 uM; details: KINOMEscan binding, percent of DMSO control; read-out: Ctrl%
LCK = LCK (Homo sapiens, UniProt P06239); test: KINOMEscan competition binding, single dose […]; details: read-out: % of control at 1 μM
LCK, sequence (P06239 2-509): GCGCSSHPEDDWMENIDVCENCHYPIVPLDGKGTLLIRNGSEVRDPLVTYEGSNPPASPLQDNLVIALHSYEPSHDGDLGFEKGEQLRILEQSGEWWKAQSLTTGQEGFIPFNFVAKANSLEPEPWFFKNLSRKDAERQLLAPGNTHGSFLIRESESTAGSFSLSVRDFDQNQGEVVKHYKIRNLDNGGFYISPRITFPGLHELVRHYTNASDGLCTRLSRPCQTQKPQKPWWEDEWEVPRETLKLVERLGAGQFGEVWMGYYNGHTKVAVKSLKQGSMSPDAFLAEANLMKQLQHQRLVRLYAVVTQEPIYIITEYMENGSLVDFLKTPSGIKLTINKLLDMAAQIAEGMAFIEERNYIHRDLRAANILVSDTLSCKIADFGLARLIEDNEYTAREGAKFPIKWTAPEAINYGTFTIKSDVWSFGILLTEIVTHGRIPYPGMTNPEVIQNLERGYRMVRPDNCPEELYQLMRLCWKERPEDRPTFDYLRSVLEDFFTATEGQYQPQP

T1 sequence (Q15349 whole entry): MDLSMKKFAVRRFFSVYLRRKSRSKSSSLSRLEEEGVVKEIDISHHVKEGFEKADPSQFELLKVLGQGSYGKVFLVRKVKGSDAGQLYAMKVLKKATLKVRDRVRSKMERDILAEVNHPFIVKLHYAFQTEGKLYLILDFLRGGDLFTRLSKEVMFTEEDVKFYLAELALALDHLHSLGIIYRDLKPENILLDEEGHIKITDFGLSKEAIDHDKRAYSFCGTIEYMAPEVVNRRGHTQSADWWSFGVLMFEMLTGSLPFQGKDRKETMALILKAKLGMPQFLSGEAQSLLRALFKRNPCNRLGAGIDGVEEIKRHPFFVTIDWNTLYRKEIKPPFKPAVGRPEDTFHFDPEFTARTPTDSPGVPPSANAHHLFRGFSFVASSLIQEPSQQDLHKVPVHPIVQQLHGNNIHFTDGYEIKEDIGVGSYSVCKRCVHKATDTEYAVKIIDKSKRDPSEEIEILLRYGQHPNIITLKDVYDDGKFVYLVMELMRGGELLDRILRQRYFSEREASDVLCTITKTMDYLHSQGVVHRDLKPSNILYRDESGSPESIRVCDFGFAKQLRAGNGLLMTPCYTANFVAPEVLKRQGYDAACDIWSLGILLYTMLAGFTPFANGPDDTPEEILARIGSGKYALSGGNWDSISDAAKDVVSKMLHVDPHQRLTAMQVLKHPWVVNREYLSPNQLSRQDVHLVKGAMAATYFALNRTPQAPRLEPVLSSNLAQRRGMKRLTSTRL
STK33, sequence (Q9BYT3 whole entry): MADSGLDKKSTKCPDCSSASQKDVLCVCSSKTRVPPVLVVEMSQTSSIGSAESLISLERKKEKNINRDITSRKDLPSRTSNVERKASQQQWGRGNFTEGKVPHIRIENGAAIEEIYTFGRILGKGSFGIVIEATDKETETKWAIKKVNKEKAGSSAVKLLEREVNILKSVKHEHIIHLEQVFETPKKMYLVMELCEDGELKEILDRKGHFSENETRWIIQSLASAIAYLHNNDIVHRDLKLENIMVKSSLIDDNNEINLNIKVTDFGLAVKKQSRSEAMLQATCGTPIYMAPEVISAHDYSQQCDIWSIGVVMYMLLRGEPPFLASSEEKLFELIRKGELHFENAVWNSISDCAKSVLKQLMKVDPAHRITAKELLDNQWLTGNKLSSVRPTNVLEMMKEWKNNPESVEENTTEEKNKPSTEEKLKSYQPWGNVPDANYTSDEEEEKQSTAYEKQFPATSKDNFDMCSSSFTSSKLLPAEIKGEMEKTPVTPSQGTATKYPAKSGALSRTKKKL
ROCK1, sequence (Q13464 whole entry): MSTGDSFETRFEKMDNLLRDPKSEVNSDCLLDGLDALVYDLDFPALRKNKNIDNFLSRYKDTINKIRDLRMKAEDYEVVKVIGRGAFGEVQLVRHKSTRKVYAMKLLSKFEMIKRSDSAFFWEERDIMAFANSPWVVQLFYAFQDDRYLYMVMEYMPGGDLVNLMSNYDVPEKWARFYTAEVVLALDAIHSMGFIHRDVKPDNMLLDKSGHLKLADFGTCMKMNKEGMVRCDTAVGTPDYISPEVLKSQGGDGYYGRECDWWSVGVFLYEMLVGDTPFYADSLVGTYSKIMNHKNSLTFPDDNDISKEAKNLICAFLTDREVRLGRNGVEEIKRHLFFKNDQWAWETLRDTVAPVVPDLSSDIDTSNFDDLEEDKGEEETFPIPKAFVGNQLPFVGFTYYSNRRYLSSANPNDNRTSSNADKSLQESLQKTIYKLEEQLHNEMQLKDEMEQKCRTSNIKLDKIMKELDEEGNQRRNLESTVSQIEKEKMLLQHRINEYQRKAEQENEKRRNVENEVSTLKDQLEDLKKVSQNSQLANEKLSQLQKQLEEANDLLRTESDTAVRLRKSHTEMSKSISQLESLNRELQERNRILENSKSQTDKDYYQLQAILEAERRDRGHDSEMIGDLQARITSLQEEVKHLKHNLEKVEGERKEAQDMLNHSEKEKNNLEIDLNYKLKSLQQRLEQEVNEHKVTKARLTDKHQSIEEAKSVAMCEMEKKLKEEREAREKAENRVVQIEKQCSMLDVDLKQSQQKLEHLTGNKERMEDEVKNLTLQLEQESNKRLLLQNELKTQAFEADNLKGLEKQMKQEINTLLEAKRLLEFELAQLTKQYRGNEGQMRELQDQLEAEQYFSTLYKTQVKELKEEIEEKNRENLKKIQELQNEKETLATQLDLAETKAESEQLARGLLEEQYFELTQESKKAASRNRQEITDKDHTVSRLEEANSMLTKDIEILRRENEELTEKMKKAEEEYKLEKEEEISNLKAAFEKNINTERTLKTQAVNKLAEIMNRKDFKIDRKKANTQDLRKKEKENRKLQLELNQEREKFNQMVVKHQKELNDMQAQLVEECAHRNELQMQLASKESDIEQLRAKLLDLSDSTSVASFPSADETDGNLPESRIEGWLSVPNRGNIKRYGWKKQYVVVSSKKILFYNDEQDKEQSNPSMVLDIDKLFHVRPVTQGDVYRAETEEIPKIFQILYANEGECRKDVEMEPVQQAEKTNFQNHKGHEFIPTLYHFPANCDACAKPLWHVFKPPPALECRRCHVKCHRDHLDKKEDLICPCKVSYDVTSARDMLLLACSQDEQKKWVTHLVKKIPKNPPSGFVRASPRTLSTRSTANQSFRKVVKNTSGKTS
LTK, sequence (P29376 whole entry): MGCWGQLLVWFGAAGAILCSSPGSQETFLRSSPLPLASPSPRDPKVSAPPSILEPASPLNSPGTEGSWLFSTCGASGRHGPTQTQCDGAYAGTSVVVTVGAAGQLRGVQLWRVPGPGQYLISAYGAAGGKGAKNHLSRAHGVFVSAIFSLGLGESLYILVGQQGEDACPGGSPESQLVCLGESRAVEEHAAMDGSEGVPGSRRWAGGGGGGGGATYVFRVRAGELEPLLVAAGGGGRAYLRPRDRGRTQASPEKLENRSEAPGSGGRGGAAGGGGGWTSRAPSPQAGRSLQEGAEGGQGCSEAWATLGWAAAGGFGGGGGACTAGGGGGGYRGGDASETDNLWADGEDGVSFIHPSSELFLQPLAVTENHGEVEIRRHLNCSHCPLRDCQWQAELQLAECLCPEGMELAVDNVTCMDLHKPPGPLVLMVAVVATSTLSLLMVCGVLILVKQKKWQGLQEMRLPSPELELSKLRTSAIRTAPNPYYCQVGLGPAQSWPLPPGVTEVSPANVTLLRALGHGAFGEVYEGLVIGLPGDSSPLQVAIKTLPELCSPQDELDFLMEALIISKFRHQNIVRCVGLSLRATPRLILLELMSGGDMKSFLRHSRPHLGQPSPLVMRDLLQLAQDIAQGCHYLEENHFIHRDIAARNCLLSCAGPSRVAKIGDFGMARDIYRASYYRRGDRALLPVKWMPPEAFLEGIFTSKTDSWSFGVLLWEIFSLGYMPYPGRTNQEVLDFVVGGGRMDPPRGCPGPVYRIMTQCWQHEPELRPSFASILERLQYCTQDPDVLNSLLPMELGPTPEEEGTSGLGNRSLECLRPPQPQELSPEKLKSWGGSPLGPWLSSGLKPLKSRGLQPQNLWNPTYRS
DYRK1B, sequence (Q9Y463 whole entry): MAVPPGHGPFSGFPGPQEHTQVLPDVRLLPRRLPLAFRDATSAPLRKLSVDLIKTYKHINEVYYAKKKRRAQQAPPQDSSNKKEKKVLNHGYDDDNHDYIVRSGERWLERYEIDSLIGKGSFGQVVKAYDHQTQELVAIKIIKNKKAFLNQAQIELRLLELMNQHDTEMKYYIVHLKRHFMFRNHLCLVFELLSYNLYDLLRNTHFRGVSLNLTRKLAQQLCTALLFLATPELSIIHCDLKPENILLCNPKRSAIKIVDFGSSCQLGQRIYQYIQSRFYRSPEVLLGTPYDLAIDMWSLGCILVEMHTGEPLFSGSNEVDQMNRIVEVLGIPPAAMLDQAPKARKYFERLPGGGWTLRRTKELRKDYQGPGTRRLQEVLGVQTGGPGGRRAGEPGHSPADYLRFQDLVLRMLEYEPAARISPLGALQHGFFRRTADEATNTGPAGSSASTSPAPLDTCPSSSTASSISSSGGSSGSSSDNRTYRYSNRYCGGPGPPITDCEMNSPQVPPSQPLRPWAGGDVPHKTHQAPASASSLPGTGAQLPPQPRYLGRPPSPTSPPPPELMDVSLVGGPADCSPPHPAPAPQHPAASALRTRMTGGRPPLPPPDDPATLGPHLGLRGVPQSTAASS
CDK9, sequence (P50750 whole entry): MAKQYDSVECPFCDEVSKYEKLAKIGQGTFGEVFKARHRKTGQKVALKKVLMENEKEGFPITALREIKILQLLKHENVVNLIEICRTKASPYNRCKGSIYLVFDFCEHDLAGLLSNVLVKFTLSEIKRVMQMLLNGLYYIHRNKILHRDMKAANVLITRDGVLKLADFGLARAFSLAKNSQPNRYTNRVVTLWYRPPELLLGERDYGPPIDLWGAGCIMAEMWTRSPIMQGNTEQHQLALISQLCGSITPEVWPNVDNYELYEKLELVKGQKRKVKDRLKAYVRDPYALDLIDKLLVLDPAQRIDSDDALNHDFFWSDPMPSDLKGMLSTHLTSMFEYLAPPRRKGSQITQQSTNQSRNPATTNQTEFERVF

Cc1ccc(NC(=O)c2cccc(C(F)(F)F)c2)cc1Nc1cc(-c2cccnc2)nc2[nH]ccc12 [HZX-02-059]
remaining binding at 1 µM (EPHA8): 0.5% | remaining binding at 1 µM (LTK): 79% | remaining binding at 1 µM (DYRK1B): 97% | remaining binding at 1 µM (STK33): 94% | remaining binding at 1 µM (DDR1): 0.75% | remaining binding at 1 µM [1]: 98% | remaining binding at 1 µM (PDGFRA): 66% | remaining binding at 1 µM (CDK9): 100% | remaining binding at 1 µM (ROCK1): 100% | remaining binding at 1 µM (NEK5): 100% | remaining binding at 1 µM (LCK): 0.9%
